Test results taken from patent US9693556B2, “Herbicidal pyridazinone derivatives” (SYNGENTA LIMITED, priority 2011, dated 2017).

Tests used:
Type in all cases: in vivo
[1] = system: Alopecurus myosuroides (ALOMY); experiment: Post-emergence herbicidal glasshouse test on Alopecurus myosuroides; conditions: for POST Application ALOMY herbicidal damage (five point scale): post-emergence, 1000 g/h, evaluated after 13 days
Method: (§1) Seeds of a variety of test species are sown in standard soil in pots (Alopecurus myosuroides (ALOMY), Setaria faberi (SETFA), Echinochloa crus-galli (ECHCG), Solanum nigrum (SOLNI), Amaranthus retoflexus (AMARE), Ipomoea hederacea (IPOHE)). After cultivation for one day (pre-emergence) or after 8 days cultivation (post-emergence) under controlled conditions in a glasshouse (at 24/16° C., day/night; 14 hours light; 65% humidity), the plants are sprayed with an aqueous spray solution derived from the formulation of the technical active ingredient in acetone/water (50:50) solution containing 0.5% Tween 20 (polyoxyethelyene sorbitan monolaurate, CAS RN 9005-64-5). Compounds are applied at 1000 g/h. The test plants are then grown in a glasshouse under controlled conditions in a glasshouse (at 24/16° C., day/night; 14 hours light; 65% humidity) and watered twice daily. After 13 days for pre and post-emergence, the test is evaluated for the percentage herbicidal damage caused to the plant. The biological activities are shown in the following table on a five point scale (5=80-100% damage; 4=60-79% damage; 3=40-59% damage; 2=20-39% damage; 1=0-19% damage).

[2] = system: Echinochloa crus-galli (ECHCG); experiment: Pre-emergence herbicidal glasshouse test on Echinochloa crus-galli; conditions: pre-emergence; 1000 g/h; evaluated after 13 days
Method: as §1

Solanum nigrum (SOLNI) [3] = experiment: Pre-emergence herbicidal glasshouse test on Solanum nigrum; conditions: for PRE Application SOLNI herbicidal damage (five point scale): pre-emergence, 1000 g/h, evaluated after 13 days
Method: as §1

Setaria faberi (SETFA) [4] = experiment: Pre-emergence herbicidal glasshouse test on Setaria faberi; conditions: for PRE Application SETFA herbicidal damage (five point scale): pre-emergence, 1000 g/h, evaluated after 13 days
Method: as §1

[5] = system: Amaranthus retoflexus (AMARE); experiment: Post-emergence herbicidal glasshouse test on Amaranthus retoflexus; conditions: for POST Application AMARE herbicidal damage (five point scale): post-emergence, 1000 g/h, evaluated after 13 days
Method: as §1

[6] = system: Ipomoea hederacea (IPOHE); experiment: Post-emergence herbicidal glasshouse test on Ipomoea hederacea; conditions: for POST Application IPOHE herbicidal damage (five point scale): post-emergence, 1000 g/h, evaluated after 13 days
Method: as §1

[7] = system: Ipomoea hederacea (IPOHE); experiment: Pre-emergence herbicidal glasshouse test on Ipomoea hederacea; conditions: pre-emergence; 1000 g/h; evaluated after 13 days
Method: as §1

[8] = system: Amaranthus retoflexus (AMARE); experiment: Pre-emergence herbicidal glasshouse test on Amaranthus retoflexus; conditions: for PRE Application AMARE herbicidal damage (five point scale): pre-emergence, 1000 g/h, evaluated after 13 days
Method: as §1

[9] = system: Echinochloa crus-galli (ECHCG); experiment: Post-emergence herbicidal glasshouse test on Echinochloa crus-galli; conditions: for POST Application ECHCG herbicidal damage (five point scale): post-emergence, 1000 g/h, evaluated after 13 days
Method: as §1

Setaria faberi (SETFA) [10] = experiment: Post-emergence herbicidal glasshouse test on Setaria faberi; conditions: for POST Application SETFA herbicidal damage (five point scale): post-emergence, 1000 g/h, evaluated after 13 days
Method: as §1

[11] = system: Alopecurus myosuroides (ALOMY); experiment: Pre-emergence herbicidal glasshouse test on Alopecurus myosuroides; conditions: for PRE Application ALOMY herbicidal damage (five point scale): pre-emergence, 1000 g/h, evaluated after 13 days
Method: as §1

Solanum nigrum (SOLNI) [12] = experiment: Post-emergence herbicidal glasshouse test on Solanum nigrum; conditions: for POST Application SOLNI herbicidal damage (five point scale): post-emergence, 1000 g/h, evaluated after 13 days
Method: as §1

SMILES	POST Application ALOMY herbicidal damage (five point scale) [1]	PRE Application ECHCG herbicidal damage (five point scale) [2]	PRE Application SOLNI herbicidal damage (five point scale) (Solanum nigrum (SOLNI) [3])	PRE Application SETFA herbicidal damage (five point scale) (Setaria faberi (SETFA) [4])	POST Application AMARE herbicidal damage (five point scale) [5]	POST Application IPOHE herbicidal damage (five point scale) [6]	PRE Application IPOHE herbicidal damage (five point scale) [7]	PRE Application AMARE herbicidal damage (five point scale) [8]	POST Application ECHCG herbicidal damage (five point scale) [9]	POST Application SETFA herbicidal damage (five point scale) (Setaria faberi (SETFA) [10])	PRE Application ALOMY herbicidal damage (five point scale) [11]	POST Application SOLNI herbicidal damage (five point scale) (Solanum nigrum (SOLNI) [12])	also measured
Cn1ncc(-c2ccc(Br)cc2S(C)(=O)=O)c(O)c1=O [Compound 1.081]	5 (5=80-100% damage)	5 (5=80-100% damage)	5 (5=80-100% damage)	5 (5=80-100% damage)	5 (5=80-100% damage)	5 (5=80-100% damage)	2 (2=20-39% damage)	5 (5=80-100% damage)	5 (5=80-100% damage)	5 (5=80-100% damage)	5 (5=80-100% damage)	5 (5=80-100% damage)	
COCn1ncc(-c2ccc(Cl)cc2S(C)(=O)=O)c(O)c1=O [Compound 2.005]	5 (5=80-100% damage)	5 (5=80-100% damage)	5 (5=80-100% damage)	5 (5=80-100% damage)	5 (5=80-100% damage)	5 (5=80-100% damage)	5 (5=80-100% damage)	5 (5=80-100% damage)	5 (5=80-100% damage)	5 (5=80-100% damage)	5 (5=80-100% damage)	5 (5=80-100% damage)	
CCn1ncc(-c2ccc(S(C)(=O)=O)c(C3=NOCC3)c2Cl)c(O)c1=O [Compound 1.009]	5 (5=80-100% damage)	5 (5=80-100% damage)	5 (5=80-100% damage)	5 (5=80-100% damage)	5 (5=80-100% damage)	5 (5=80-100% damage)		5 (5=80-100% damage)	5 (5=80-100% damage)	5 (5=80-100% damage)	5 (5=80-100% damage)	5 (5=80-100% damage)	
Cc1cccn(-c2cnn(C)c(=O)c2O)c1=O [Compound 1.062]	2 (2=20-39% damage)	1 (1=0-19% damage)	1 (1=0-19% damage)	1 (1=0-19% damage)	5 (5=80-100% damage)	5 (5=80-100% damage)	1 (1=0-19% damage)		5 (5=80-100% damage)	4 (4=60-79% damage)	1 (1=0-19% damage)	4 (4=60-79% damage)	
C=Cc1ccc(-c2cnn(C)c(=O)c2O)c(S(C)(=O)=O)c1 [Compound 1.139]	5 (5=80-100% damage)	5 (5=80-100% damage)		1 (1=0-19% damage)	5 (5=80-100% damage)	5 (5=80-100% damage)	4 (4=60-79% damage)	5 (5=80-100% damage)	5 (5=80-100% damage)	5 (5=80-100% damage)	5 (5=80-100% damage)	5 (5=80-100% damage)	
CCCCn1c(C2CC2)ncc(-c2cnn(C)c(=O)c2O)c1=O [Compound 10.005]													POST Application ALOMY ([1]; post-emergence application, Alopecurus myosuroides, damage score 1-5): 2 (2=20-39% damage); PRE Application SOLNI (Solanum nigrum (SOLNI) [3]; pre-emergence application, Solanum nigrum, damage score 1-5): 5 (5=80-100% damage); PRE Application SETFA (Setaria faberi (SETFA) [4]; pre-emergence application, Setaria faberi, damage score 1-5): 1 (1=0-19% damage); POST Application AMARE ([5]; post-emergence application, Amaranthus retoflexus, damage score 1-5): 5 (5=80-100% damage); POST Application IPOHE ([6]; post-emergence application, Ipomoea hederacea, damage score 1-5): 4 (4=60-79% damage); PRE Application AMARE ([8]; pre-emergence application, Amaranthus retoflexus, damage score 1-5): 5 (5=80-100% damage); POST Application ECHCG ([9]; post-emergence application, Echinochloa crus-galli, damage score 1-5): 5 (5=80-100% damage); POST Application SETFA (Setaria faberi (SETFA) [10]; post-emergence application, Setaria faberi, damage score 1-5): 5 (5=80-100% damage); PRE Application ALOMY ([11]; pre-emergence application, Alopecurus myosuroides, damage score 1-5): 1 (1=0-19% damage); POST Application SOLNI (Solanum nigrum (SOLNI) [12]; post-emergence application, Solanum nigrum, damage score 1-5): 5 (5=80-100% damage)
CC(C)n1ncc(-c2c(Cl)ccc(Cl)c2Cl)c(O)c1=O [Compound 1.015]	1 (1=0-19% damage)	1 (1=0-19% damage)		1 (1=0-19% damage)	2 (2=20-39% damage)	4 (4=60-79% damage)	1 (1=0-19% damage)		2 (2=20-39% damage)	1 (1=0-19% damage)	1 (1=0-19% damage)	4 (4=60-79% damage)	
Cc1ccn(-c2cnn(C)c(=O)c2O)c(=O)c1 [Compound 1.065]	1 (1=0-19% damage)	3 (3=40-59% damage)	1 (1=0-19% damage)	2 (2=20-39% damage)	5 (5=80-100% damage)	4 (4=60-79% damage)		5 (5=80-100% damage)	5 (5=80-100% damage)	5 (5=80-100% damage)	1 (1=0-19% damage)	4 (4=60-79% damage)	
COc1ccc(-c2cnn(C)c(=O)c2O)c(C(F)(F)F)c1 [Compound 1.115]	1 (1=0-19% damage)	2 (2=20-39% damage)	4 (4=60-79% damage)	1 (1=0-19% damage)	2 (2=20-39% damage)	4 (4=60-79% damage)		4 (4=60-79% damage)	1 (1=0-19% damage)	1 (1=0-19% damage)	1 (1=0-19% damage)	5 (5=80-100% damage)	
CCCn1ncc(-c2ccc(C(F)(F)F)cc2Cl)c(O)c1=O [Compound 1.126]	1 (1=0-19% damage)	1 (1=0-19% damage)	1 (1=0-19% damage)	1 (1=0-19% damage)	5 (5=80-100% damage)	3 (3=40-59% damage)	1 (1=0-19% damage)		2 (2=20-39% damage)	2 (2=20-39% damage)	1 (1=0-19% damage)	4 (4=60-79% damage)	
Cn1ncc(-c2ccccc2[N+](=O)[O-])c(O)c1=O [Compound 1.111]	1 (1=0-19% damage)	1 (1=0-19% damage)		1 (1=0-19% damage)	2 (2=20-39% damage)	1 (1=0-19% damage)	2 (2=20-39% damage)		1 (1=0-19% damage)	1 (1=0-19% damage)	1 (1=0-19% damage)	3 (3=40-59% damage)	
